Patent US12673930B2, “Thiophene HSD17B13 inhibitors and uses thereof” (INIPHARM, INC., priority 2020, dated 2026)

Assays:
[1] = biological target: T1, HSD17B13 enzyme (Homo sapiens, UniProt Q7Z5P4); assay: LC/MS estrone detection assay (conversion of estradiol to estrone by HSD17B13); assay type: biochemical; details: substrate 4 μM estradiol, 6 mM NAD+, 30 nM HSD17B13 enzyme, 2 hours at 26.5° C
T1 construct: His; made in house; host or cells: E. coli
T1 sequence (Q7Z5P4 20-300): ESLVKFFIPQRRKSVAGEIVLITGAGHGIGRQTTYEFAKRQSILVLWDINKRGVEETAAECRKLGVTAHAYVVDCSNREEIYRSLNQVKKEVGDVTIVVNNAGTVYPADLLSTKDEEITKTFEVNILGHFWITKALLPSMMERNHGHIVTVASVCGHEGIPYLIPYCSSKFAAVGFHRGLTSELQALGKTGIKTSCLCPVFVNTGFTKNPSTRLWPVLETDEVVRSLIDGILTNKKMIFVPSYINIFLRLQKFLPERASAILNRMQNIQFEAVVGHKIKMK
Method: The liquid chromatography/mass spectrometry (LC/MS) estrone detection assay monitors the conversion of estradiol to estrone by HSD17B13. This assay was performed in a 96 wp format (Eppendorf deep well Plate 96/500) in an 80 μl reaction volume containing: 4 μM estradiol (E2; Cayman; Ser. No. 10/006,315); 6 mM NAD^+ (Sigma; #N0623), and 30 nM HSD17B13 enzyme (in-house; E. coli expressed His-tagged, purified, soluble protein), in a buffer containing 1M potassium phosphate buffer pH 7.4 and 0.5% vehicle (DMSO). Reactions were incubated for 2 hours at 26.5° C., and estradiol (E2) conversion to estrone (E1) was quantitated by LC-MS/MS based analyte detection for E1 using LCMS grade reagents. Reactions were terminated by the addition of two volumes of acetonitrile (MeCN; LCMS grade; CAS #75/05/8) containing deuterated (D4)-E1 as internal standard (Clear Synth; #CS-T-54273; 500 ng/mL final concentration). Samples were applied to pre-prepared Bond Elut-C18 extraction cartridges (3 mL; Agilent; Ser. No. 12/102,028), and washed and eluted in MeCN. Eluates were dried under nitrogen and re-suspended in 60% methanol (LCMS grade methanol; CAS #67/56/1) before submission for analysis. Standard curves for E1 were included for quantification. Analysis of samples was undertaken on a XBridge BEH C18 column (Waters; #186003033) using 0.1% Diethyl Amine in MeCN (mobile phase A; DEA CAS #109-89-7) and 0.1% Diethyl Amine in milli-Q water (mobile phase B) in a 3 min gradient up to 25% B. Analytes were detected in negative mode using MRM analysis, with E2 having a RT of 1.85 min and E1 having a RT of 2 min. Activity of the enzyme in the absence of NAD^+, was subtracted from samples to yield values for specific enzyme activity. Enzyme activity in the presence of test samples was expressed as a percentage of the uninhibited enzyme activity, and plotted versus inhibitor concentration. Non-linear regression was performed using the Morrison equation (see below) for tight binding inhibitors on GraphPad Prism software (GraphPad Software, La Jolla, Calif.). All assessments were undertaken in duplicate evaluations which were pooled during the extraction process and subsequently injected as duplicates for LC-MS/MS analysis. Y=Vo*(1−((((Et+X+Q)−(((Et+X+Q)^2)−4*Et*X)^0.5))/(2*Et))) Morrison equation:
Y=Activity in the presence of inhibitor; Vo=Activity in absence of inhibitor; Et=Total enzyme concentration; X=inhibitor concentration; and Q=(Ki*(1+(S/Km))), where Ki is the inhibition constant, Km is the Michaelis constant, and S is the substrate concentration.

[2] = biological target: T1, HSD17B13 enzyme; assay: NADH detection assay (fluorescence based Leukotriene B3 (LTB3) assay) for HSD17B13 activity; assay type: biochemical; details: substrate 25 μM LTB3, 3 mM NAD+, 125 nM HSD17B13 enzyme, 1 hour at 26.5° C
Method: The fluorescence based Leukotriene B3 (LTB3) assay monitors the fluorescence of NADH, which is generated from NAD+ during the dehydrogenation of the substrate LTB3. The reactions were performed in a 384-well plates (Greiner; #655076) in a 20 μl reaction volume containing the following reagents (final concentrations): 25 μM LTB3 (Cayman; #20109); 3 mM NAD^+ (Sigma; #N0623); 125 nM HSD17B13 enzyme (in-house; E. coli expressed His-tagged, purified, soluble protein); 1 M potassium phosphate buffer, pH 7.4; and 1% DMSO. Reactions were initiated by co-addition of NAD+ and enzyme, and monitored for 1 hour at 26.5° C. Generation of NADH was measured as the fluorescence signal (Excitation at 340 nm and Emission at 445 nm) at 1 hour minus the baseline fluorescence at t=0. Fluorescence signals in the absence of LTB3 (negative control values), were subtracted from all values so that the results reflected substrate-dependent production of NADH. NADH standards were included to allow the conversion of relative fluorescence units into rates of enzyme activity. Enzyme activity in the presence of test compounds was expressed as a percentage of the uninhibited enzyme activity, and plotted versus inhibitor concentration. Non-linear regression was performed using a four-parameter logistic model and Microsoft Excel Solver® software. Ten concentrations of inhibitor were tested in duplicate (in the range of 30 μM-2.5 nM). Two independent concentration response assays were performed and the geometric mean is reported, =/−the SEM.

SMILES | IC50 [1] [nM] | IC50 [2] [nM]
COc1ccccc1CCNC(=O)c1c(NC(=O)c2ccc(O)c(Cl)c2)sc2c1CCN(C)C2 [Example 15, 2-(3-chloro-4-hydroxybenzamido)-N-(2-methoxyphenethyl)-6-methyl-4,5,6,7-tetrahydrothieno[2,3-c]pyridine-3-carboxamide] | 100 to 1000 | 
COc1ccccc1CCNC(=O)c1sccc1NC(=O)c1ccc(O)c(Cl)c1 [Example 1, 3-(3-chloro-4-hydroxybenzamido)-N-(2-methoxyphenethyl)thiophene-2-carboxamide] | ≤ 100 | ≤ 1000
O=C(Nc1sc(Cl)cc1C(=O)NCCc1ccccc1OC(F)(F)F)c1ccc(O)c(F)c1 [Example 46, 5-chloro-2-(3-fluoro-4-hydroxybenzamido)-N-(2-(trifluoromethoxy)phenethyl) thiophene-3-carboxamide] | ≤ 100 | 
COc1ccccc1CCNC(=O)c1ccsc1NC(=O)c1ccc(O)c(Cl)c1 [Example 13, 2-(3-chloro-4-hydroxybenzamido)-N-(2-methoxyphenethyl)thiophene-3-carboxamide] | ≤ 100 | ≤ 1000
O=C(Nc1ccsc1C(=O)NCc1c[nH]c2ccccc12)c1ccc(O)c(Cl)c1 [Example 4, N-((1H-indol-3-yl)methyl)-3-(3-chloro-4-hydroxybenzamido)thiophene-2-carboxamide] | ≤ 100 | ≤ 1000
O=C(Nc1cc(Cl)sc1C(=O)NC1(c2ccc(F)cc2)CC1)c1cc(F)c(O)c(F)c1 [Example 35, 5-chloro-3-(3,5-difluoro-4-hydroxybenzamido)-N-(1-(4-fluorophenyl)cyclopropyl)thiophene-2-carboxamide] | ≤ 100 | 
O=C(Nc1sc(Cl)cc1C(=O)NCCc1ccccc1F)c1ccc(O)c(F)c1 [Example 43, 5-chloro-2-(3-fluoro-4-hydroxybenzamido)-N-(2-fluorophenethyl)thiophene-3-carboxamide] | ≤ 100 | 
CC(C)(C)CCNC(=O)c1sccc1NC(=O)c1cc(F)c(O)c(Cl)c1 [Example 47, 3-(3-chloro-5-fluoro-4-hydroxybenzamido)-N-(3,3-dimethylbutyl)thiophene-2-carboxamide] | ≤ 100 | 
O=C(Nc1cc(Cl)sc1C(=O)NCCc1ccc(Cl)cc1Cl)c1ccc(O)c(F)c1 [Example 36, 5-chloro-N-(2,4-dichlorophenethy1)-3-(3-fluoro-4-hydroxybenzamido)thiophene-2-carboxamide] | ≤ 100 | 
COc1ccccc1CCNC(=O)c1sccc1NC(=O)c1cc(Cl)c(O)c(C(C)C)c1 [Example 23, 3-(3-chloro-4-hydroxy-5-isopropylbenzamido)-N-(2-methoxyphenethyl)thiophene-2-carboxamide] |  | > 10000
O=C(Nc1sc(Cl)cc1C(=O)NCCN1CCOCC1)c1ccc(O)c(F)c1 [Example 41, 5-chloro-2-(3-fluoro-4-hydroxybenzamido)-N-(2-morpholinoethyl)thiophene-3-carboxamide.] | 100 to 1000 | 
COc1ccccc1CCNC(=O)c1sccc1NC(=O)c1ccc(CCC(=O)O)c(F)c1 [Example 22, 3-(2-fluoro-4-((2-((2-methoxyphenethyl)carbamoyl)thiophen-3-yl)carbamoyl)phenyl) propanoic acid] |  | > 10000
O=C(Nc1cc(Cl)sc1C(=O)NCCc1ccc(F)cc1F)c1ccc(O)c(F)c1 [Example 39, 5-chloro-N-(2,4-difluorophenethyl)-3-(3-fluoro-4-hydroxybenzamido)thiophene-2-carboxamide] | ≤ 100 | 
O=C(Nc1ccsc1C(=O)N[C@H](CO)c1ccccc1)c1ccc(O)c(Cl)c1 [Example 48, (S)-3-(3-chloro-4-hydroxybenzamido)-N-(2-hydroxy-1-phenylethyl) thiophene-2-carboxamide] | 100 to 1000 | 
O=C(Nc1ccsc1C(=O)N[C@@H](CO)c1ccccc1)c1ccc(O)c(Cl)c1 [Example 49, (R)-3-(3-chloro-4-hydroxybenzamido)-N-(2-hydroxy-1-phenylethyl)thiophene-2-carboxamide] | ≤ 100 | 
CN1CCN(CCNC(=O)c2sc(Cl)cc2NC(=O)c2ccc(O)c(F)c2)CC1 [Example 37, 5-chloro-3-(3-fluoro-4-hydroxybenzamido)-N-(2-(4-methylpiperazin-1-yl)ethyl)thiophene-2-carboxamide] | 100 to 1000 | 
COc1ccccc1CCNC(=O)c1sccc1NC(=O)c1ccc(OCC(=O)O)c(Cl)c1 [Example 11, 2-(2-chloro-4-((2-((2-methoxyphenethyl)carbamoyl)thiophen-3-yl)carbamoyl)phenoxy)acetic acid] |  | > 10000
O=C(Nc1cc(Cl)sc1C(=O)NCCc1ccc(F)cc1Cl)c1ccc(O)c(F)c1 [Example 34, 5-chloro-N-(2-chloro-4-fluorophenethyl)-3-(3-fluoro-4-hydroxybenzamido) thiophene-2-carboxamide] | 100 to 1000 | 
CN1CCN(CCNC(=O)c2cc(Cl)sc2NC(=O)c2ccc(O)c(F)c2)CC1 [Example 42, 5-chloro-2-(3-fluoro-4-hydroxybenzamido)-N-(2-(4-methylpiperazin-1-yl)ethyl)thiophene-3-carboxamide] | 1000 to 10000 | 
COc1ccccc1CCNC(=O)c1sccc1NC(=O)c1cc(Cl)c(O)c(Cl)c1 [Example 32, 3-(3,5-dichloro-4-hydroxybenzamido)-N-(2-methoxyphenethyl)thiophene-2-carboxamide] |  | ≤ 1000
COc1ccccc1CCNC(=O)c1sccc1NC(=O)c1cnc(O)c(Cl)c1 [Example 21, 5-chloro-6-hydroxy-N-(2-((2-methoxyphenethyl)carbamoyl)thiophen-3-yl)nicotinamide] |  | > 10000
O=C(Nc1cc(Cl)sc1C(=O)NCCN1CCOCC1)c1ccc(O)c(F)c1 [Example 38, 5-chloro-3-(3-fluoro-4-hydroxybenzamido)-N-(2-morpholinoethyl)thiophene-2-carboxamide] | ≤ 100 | 
O=C(Nc1sc(Cl)cc1C(=O)NCCc1ccccc1OC(F)(F)F)c1ccc(O)c(Cl)c1 [Example 40, 5-chloro-2-(3-chloro-4-hydroxybenzamido)-N-(2-(trifluoromethoxy)phenethyl)thiophene-3-carboxamide] | ≤ 100 | 
O=C(Nc1cc(Cl)sc1C(=O)NCCc1ccccc1C(F)(F)F)c1cc(F)c(O)c(F)c1 [Example 44, 5-chloro-3-(3,5-difluoro-4-hydroxybenzamido)-N-(2-(trifluoromethyl)phenethyl) thiophene-2-carboxamide] | ≤ 100 | 
O=C(Nc1cc(Cl)sc1C(=O)NCCc1ccccc1C(F)(F)F)c1ccc(O)c(Cl)c1 [Example 45, 5-chloro-3-(3-chloro-4-hydroxybenzamido)-N-(2-(trifluoromethyl)phenethyl) thiophene-2-carboxamide] | ≤ 100 | 
